From article PMC8225045, “Chemical Synthesis and Structure-Activity Relationship Study Yield Desotamide a Analogues with Improved Antibacterial Activity” (Marine Drugs, 2021)
Values after ≈ are worked out from the molar mass of the structure shown. Read-outs that look alike come from different tables or passages of the source. Non-standard residues stand in square brackets, D forms with d. Residues, ends and D or L forms follow the SMILES beside them. aIle = CC[C@@H](C)[C@H](N)C(=O)O

Tests used:
[1] = tested on: Klebsiella pneumoniae 15580
Description: (§1) All the synthesized cyclopeptides (7–19) and the desotamide A (1) isolated from S. scopuliridis SCSIO ZJ46 were evaluated for antibacterial activities against a series of Gram-positive pathogens including […] Staphylococcus aureus ATCC29213, Bacillus subtilis BS01, Micrococcus luteus ML01, Enterococcus faecalis ATCC29212; 3 drug-resistant poultry pathogens Staphylococcus simulans LJH13, Enterococcus gallinarum LJH11, Staphylococcus haemolyticus LJH9; 4 clinical methicillin-resistant Staphylococcus aureus (MRSA) shhs-E1, MRSA 16339, MRSA 745524, MRSA 16162. Their antibacterial activities against the […] pathogens Escherichia coli ATCC 13,124 and clinical drug-resistant Klebsiella pneumonia 15580 were also assayed.
(§2) Ampicillin, vancomycin and polymyxin were used as control. The maximum test concentrations for all the compounds were 128 μg/mL.

Gram-positive pathogens = conditions: for Gram positive antibacterial activity for desotamides (in words): Figure 2; for MIC values against Gram-positive pathogens (summary over the panel): series of Gram-positive pathogens including MRSA, summary of Table 1
Description: as §1, §2

[2] = tested on: methicillin-resistant Staphylococcus aureus (MRSA) shhsE1; assay: microbe, parasite or virus in culture
Description: as §1, §2

MRSA 16162 = assay: microbe, parasite or virus in culture
Description: as §1, §2

[3] = tested on: Enterococcus faecalis ATCC 29212; assay: microbe, parasite or virus in culture
Description: as §1, §2

Micrococcus luteus ML01 = assay: microbe, parasite or virus in culture
Description: as §1, §2

Bacillus subtilis BS01 = assay: microbe, parasite or virus in culture
Description: as §1, §2

[4] = tested on: Staphylococcus simulans LJH13; assay: microbe, parasite or virus in culture
Description: as §1, §2

[5] = tested on: Staphylococcus aureus ATCC 29213; assay: microbe, parasite or virus in culture
Description: as §1, §2

[6] = tested on: Staphylococcus haemolyticus LJH9; assay: microbe, parasite or virus in culture
Description: as §1, §2

[7] = tested on: Enterococcus gallinarum LJH11; assay: microbe, parasite or virus in culture
Description: as §1, §2

MRSA 16339 = assay: microbe, parasite or virus in culture
Description: as §1, §2

MRSA 745524 = assay: microbe, parasite or virus in culture
Description: as §1, §2

[8] = clinical drug-resistant Klebsiella pneumoniae 15580, two-fold serial dilution, Mueller-Hinton broth, 96-well plate, CLSI-based, maximum test concentration 128 μg/mL
[9] = clinical MRSA shhsE1, two-fold serial dilution, Mueller-Hinton broth, 96-well plate, CLSI-based, maximum test concentration 128 μg/mL
[10] = clinical MRSA 16162, two-fold serial dilution, Mueller-Hinton broth, 96-well plate, CLSI-based, maximum test concentration 128 μg/mL
[11] = Enterococcus faecalis ATCC 29212, two-fold serial dilution, Mueller-Hinton broth, 96-well plate, CLSI-based, maximum test concentration 128 μg/mL
[12] = Micrococcus luteus ML01, two-fold serial dilution, Mueller-Hinton broth, 96-well plate, CLSI-based, maximum test concentration 128 μg/mL
[13] = Bacillus subtilis BS01, two-fold serial dilution, Mueller-Hinton broth, 96-well plate, CLSI-based, maximum test concentration 128 μg/mL
[14] = Staphylococcus simulans LJH13, drug-resistant poultry pathogen, two-fold serial dilution, Mueller-Hinton broth, 96-well plate, CLSI-based, maximum test concentration 128 μg/mL
[15] = Staphylococcus aureus ATCC 29213, two-fold serial dilution, Mueller-Hinton broth, 96-well plate, CLSI-based, maximum test concentration 128 μg/mL
[16] = Staphylococcus haemolyticus LJH9, drug-resistant poultry pathogen, two-fold serial dilution, Mueller-Hinton broth, 96-well plate, CLSI-based, maximum test concentration 128 μg/mL
[17] = Enterococcus gallinarum LJH11, drug-resistant poultry pathogen, two-fold serial dilution, Mueller-Hinton broth, 96-well plate, CLSI-based, maximum test concentration 128 μg/mL
[18] = clinical MRSA 16339, two-fold serial dilution, Mueller-Hinton broth, 96-well plate, CLSI-based, maximum test concentration 128 μg/mL
[19] = clinical MRSA 745524, two-fold serial dilution, Mueller-Hinton broth, 96-well plate, CLSI-based, maximum test concentration 128 μg/mL
[20] = Enterococcus faecalis, ATCC29212
[21] = Staphylococcus aureus, ATCC29213
[22] = Staphylococcus haemolyticus, LJH9
[23] = Enterococcus gallinarum, GALLINARUM

Molecule | Gram positive antibacterial activity for desotamides (in words) (Gram-positive pathogens; summary) | MIC [2, 9] [µg/mL] | MIC [7, 17] [µg/mL] | MIC [1]; 15580 [µg/mL] | MIC (MRSA 16162; 16162) [µg/mL] | MIC ([3]; ATCC 29212) [µg/mL] | MIC (Micrococcus luteus ML01; ML01) [µg/mL] | MIC (Bacillus subtilis BS01; BS01) [µg/mL] | MIC [4] [µg/mL] | MIC ([5]; ATCC 29213) [µg/mL] | MIC [6] [µg/mL] | MIC [7] [µg/mL] | MIC (MRSA 16339; 16339) [µg/mL] | MIC (MRSA 745524; 745524) [µg/mL] | MIC ([2]; methicillin-resistant shhsE1) [µg/mL] | also measured
cyclo(Asn-Ile-D-Leu-Leu-Trp-D-Arg) (head to tail) [Compound 19, Desotamide A0] | Slightly less active than 1 | 64 | >128 |  |  |  |  |  |  |  |  |  |  |  |  | MIC [1, 8]: >128 µg/mL; MIC (MRSA 16162; [10]): 64 µg/mL; MIC [3, 11]: 128 µg/mL; MIC (Micrococcus luteus ML01; [12]): 32 µg/mL; MIC (Bacillus subtilis BS01; [13]): 32 µg/mL; MIC [4, 14]: 32 µg/mL; MIC [5, 15]: 64 µg/mL; MIC [6, 16]: 64 µg/mL; MIC (MRSA 16339; [18]): 128 µg/mL; MIC (MRSA 745524; [19]): 64 µg/mL
CN[C@H](CC(C)C)C(=O)N[C@H]1C(=O)N[C@@H](CC(N)=O)C(=O)N[C@H]2C(=O)N[C@H]3C(=O)N[C@H](C(=O)N[C@H](C(=O)O)c4cc(O)cc(O)c4-c4cc3ccc4O)[C@H](O)c3ccc(c(Cl)c3)Oc3cc2cc(c3O[C@@H]2O[C@H](CO)[C@@H](O)[C@H](O)[C@H]2O[C@H]2C[C@](C)(N)[C@H](O)[C@H](C)O2)Oc2ccc(cc2Cl)[C@H]1O [Van, vancomycin, reference compound] |  |  |  |  |  |  |  |  |  |  |  |  |  |  |  | MIC ([2]; Staphylococcus aureus, MRSA): 0.5 µg/mL (≈ 0.345 µM); MIC (MRSA 16162; Staphylococcus aureus, MRSA): 0.5 µg/mL (≈ 0.345 µM); MIC [3, 20]: 4 µg/mL (≈ 2.76 µM); MIC (Micrococcus luteus ML01; Micrococcus luteus, ML01): 0.25 µg/mL (≈ 0.173 µM); MIC (Bacillus subtilis BS01; Bacillus subtilis, BS01): 0.125 µg/mL (≈ 0.0863 µM); MIC ([4]; Staphylococcus simulans, LJH13): 0.25 µg/mL (≈ 0.173 µM); MIC [5, 21]: 0.5 µg/mL (≈ 0.345 µM); MIC [6, 22]: 2 µg/mL (≈ 1.38 µM); MIC [7, 23]: 8 µg/mL (≈ 5.52 µM); MIC (MRSA 16339; Staphylococcus aureus, MRSA): 0.25 µg/mL (≈ 0.173 µM); MIC (MRSA 745524; Staphylococcus aureus, MRSA): 0.5 µg/mL (≈ 0.345 µM)
CC(C)C[C@@H]1NC(=O)[C@H](Cc2c[nH]c3ccccc23)NC(=O)[C@@H](CCCCN)NC(=O)[C@H](CC(N)=O)NC(=O)[C@H](CC(C)C)NC(=O)[C@@H](CC(C)C)NC1=O [Compound 17, Desotamide A8] (cyclo([dK]WL[dL]LN)) | Slightly less active than 1 | 64 (≈ 83.3 µM) |  | >128 | 64 (≈ 83.3 µM) | 128 (≈ 167 µM) | 16 (≈ 20.8 µM) | 32 (≈ 41.7 µM) | 32 (≈ 41.7 µM) | 32 (≈ 41.7 µM) | 64 (≈ 83.3 µM) | >128 | 64 (≈ 83.3 µM) | 32 (≈ 41.7 µM) |  | 
CC[C@@H](C)[C@@H]1NC(=O)[C@H](CC(N)=O)NC(=O)[C@@H](Cc2c[nH]cn2)NC(=O)[C@H](Cc2c[nH]c3ccccc23)NC(=O)[C@H](CC(C)C)NC(=O)[C@@H](CC(C)C)NC1=O [Compound 12, Desotamide A3] (cyclo(LW[dH]N[aIle][dL])) | Inactive |  |  | >128 | >128 | >128 | >128 | >128 | >128 | >128 | >128 | >128 | >128 | >128 | >128 | 
CC[C@@H](C)[C@@H]1NC(=O)[C@H](CC(N)=O)NC(=O)[C@@H](CCCNC(=N)N)NC(=O)[C@H](Cc2c[nH]c3ccccc23)NC(=O)[C@H](CC(C)C)NC(=O)[C@@H](CC(C)C)NC1=O [Compound 10, Desotamide A1] (cyclo(LW[dR]N[aIle][dL])) | Inactive |  |  | >128 | >128 | >128 | 64 (≈ 80.4 µM) | >128 | >128 | >128 | >128 | >128 | >128 | >128 | >128 | 
CC(C)C[C@@H]1NC(=O)[C@H](Cc2c[nH]c3ccccc23)NC(=O)[C@@H](CCCCN)NC(=O)[C@H](CC(N)=O)NC(=O)[C@H](C(C)C)NC(=O)[C@@H](CC(C)C)NC1=O [Compound 9, Wollamide B2] (cyclo([dK]WL[dL]VN)) |  | 32 (≈ 42.4 µM) | 128 (≈ 170 µM) | >128 | 32 (≈ 42.4 µM) | 64 (≈ 84.9 µM) | 16 (≈ 21.2 µM) | 16 (≈ 21.2 µM) | 16 (≈ 21.2 µM) | 32 (≈ 42.4 µM) | 32 (≈ 42.4 µM) |  | 32 (≈ 42.4 µM) | 32 (≈ 42.4 µM) |  | fold increase of anti-Gram-positive activity compared to wollamide B (7) (Gram-positive pathogens; Gram-positive bacteria): 2–4 folds; Gram positive antibacterial activity for wollamides (in words) (Gram-positive pathogens; summary, Figure 3): 2–4-Fold more active than 7
CC1(C)S[C@@H]2[C@H](NC(=O)[C@H](N)c3ccccc3)C(=O)N2[C@H]1C(=O)O [Amp, ampicillin, reference compound] |  |  |  |  |  |  |  |  |  |  |  |  |  |  |  | MIC ([2]; Staphylococcus aureus, MRSA): 64 µg/mL (≈ 183 µM); MIC (MRSA 16162; Staphylococcus aureus, MRSA): 32 µg/mL (≈ 91.6 µM); MIC [3, 20]: 4 µg/mL (≈ 11.4 µM); MIC (Micrococcus luteus ML01; Micrococcus luteus, ML01): 0.25 µg/mL (≈ 0.715 µM); MIC (Bacillus subtilis BS01; Bacillus subtilis, BS01): < 0.0625 µg/mL; MIC ([4]; Staphylococcus simulans, LJH13): 0.25 µg/mL (≈ 0.715 µM); MIC [5, 21]: 1 µg/mL (≈ 2.86 µM); MIC [6, 22]: 16 µg/mL (≈ 45.8 µM); MIC [7, 23]: 2 µg/mL (≈ 5.72 µM); MIC (MRSA 16339; Staphylococcus aureus, MRSA): 64 µg/mL (≈ 183 µM); MIC (MRSA 745524; Staphylococcus aureus, MRSA): 16 µg/mL (≈ 45.8 µM)
CC(C)C[C@@H]1NC(=O)[C@H](CC(N)=O)NC(=O)CNC(=O)[C@H](Cc2c[nH]c3ccccc23)NC(=O)[C@H](CC(C)C)NC(=O)[C@@H](CC(C)C)NC1=O [Compound 16, Desotamide A7] (cyclo(NL[dL]LWG)) | Inactive | >128 |  | >128 | >128 | >128 | >128 | >128 | >128 | >128 | >128 | >128 | >128 | >128 |  | MIC values against Gram-positive pathogens (summary over the panel) (Gram-positive pathogens): > 128 µg/mL
cyclo(Asn-Ile-D-Leu-Leu-Trp-D-His) (head to tail) [Compound 18, Desotamide A9] | Inactive | >128 | >128 |  |  |  |  |  |  |  |  |  |  |  |  | MIC [1, 8]: >128 µg/mL; MIC values against Gram-positive pathogens (summary over the panel) (Gram-positive pathogens): > 128 µg/mL; MIC (MRSA 16162; [10]): >128 µg/mL; MIC [3, 11]: >128 µg/mL; MIC (Micrococcus luteus ML01; [12]): >128 µg/mL; MIC (Bacillus subtilis BS01; [13]): >128 µg/mL; MIC [4, 14]: >128 µg/mL; MIC [5, 15]: >128 µg/mL; MIC [6, 16]: >128 µg/mL; MIC (MRSA 16339; [18]): >128 µg/mL; MIC (MRSA 745524; [19]): >128 µg/mL
CC[C@H](C)[C@@H]1NC(=O)[C@H](CC(N)=O)NC(=O)[C@@H](Cc2c[nH]cn2)NC(=O)[C@H](Cc2c[nH]c3ccccc23)NC(=O)[C@H](CC(C)C)NC(=O)[C@@H](CC(C)C)NC1=O [Compound 14, Desotamide A5] (cyclo(I[dL]LW[dH]N)) | 2-Fold less active than 1 |  |  | >128 | 64 (≈ 82.4 µM) | 64 (≈ 82.4 µM) | 64 (≈ 82.4 µM) | 64 (≈ 82.4 µM) | 64 (≈ 82.4 µM) | 64 (≈ 82.4 µM) | 64 (≈ 82.4 µM) | 128 (≈ 165 µM) | 64 (≈ 82.4 µM) | 64 (≈ 82.4 µM) | 64 (≈ 82.4 µM) | fold less potent MIC value compared to 1 (Gram-positive pathogens; Gram-positive bacteria, generally): 2 fold
